Measured values as given in doi:10.1101/2025.05.14.653428v1 (bioRxiv, 2025).
Where a SMILES comes first, the peptide text is derived from it.

How the values were obtained:
TGF-β in hepatocytes = assay: TGF-β mRNA and protein in cultured hepatocytes; type: cell-based, murine; conditions: hepatocytes on vitronectin, 24 hours
hepatocytes = type: cell-based, murine; conditions: 50μg/mL, 24 hours, flow cytometry
pFAK in hepatocytes = pFAK in hepatocytes by western blotting; type: cell-based, murine; conditions: suspension without FCS 2 hours, 50μg/mL for 30 minutes
[1] = GLQGE detection in plasma after injection; type: in vivo, mice; conditions: for time to enter the circulation / time until cleared from the bloodstream: LC-MS/MS; for Tmax: mouse
[2] = Evaluation of toxicity in vivo; design: species or system mice; conditions: 10 days intraperitoneal, 1 mg/mouse/day, N=10/group
Huh-7 hepatoma cell line = assay: TGF-β protein in Huh-7 cells; type: cell-based; conditions: cultured on vitronectin, 50μg/mL, 24 hours

Molecule | TGF-β mRNA expression in wildtype hepatocytes after FAK inhibition (TGF-β in hepatocytes; 5μM) | hepatocyte apoptosis (annexinv-propidium-iodide staining) (hepatocytes) | hepatocyte proliferation (ki67 staining) (hepatocytes) | total TGF-β protein in hepatocytes (TGF-β in hepatocytes; 50μg/mL, MLEC bioassay) | TGF-β mRNA expression in cultured hepatocytes compared to untreated control (TGF-β in hepatocytes; 50μg/mL, qPCR) | pFAK in hepatocytes from β3 global knockout mice (pFAK in hepatocytes) | pFAK in hepatocytes (pFAK in hepatocytes; western blotting) | time to enter the circulation ([1]; i.p. injection of 0.5 mg GLQGE) [min] | time until cleared from the bloodstream ([1]; i.p. injection of 0.5 mg GLQGE) [min] | Tmax ([1]; ip, 0.5 mg/mouse) [min] | Tmax ([1]; sc, 1 mg/mouse) [min] | time to enter the circulation ([1]; s.c. injection of 1 mg GLQGE) [min] | time until cleared from the bloodstream ([1]; s.c. injection of 1 mg GLQGE) [min] | blood values of kidney function [2] | blood values of liver function [2] | blood values of pancreas function [2] | complete blood count [2] | TGF-β mRNA in cultured hepatocytes compared to GLOGE (TGF-β in hepatocytes; 50μg/mL, qPCR) | TGF-β protein in Huh-7 (Huh-7 hepatoma cell line)
CS(=O)(=O)c1cccc(CNc2nc(Nc3ccc4c(c3)CCC(=O)N4)ncc2C(F)(F)F)c1 [PF573228, reference compound] | rise |  |  |  |  |  |  |  |  |  |  |  |  |  |  |  |  |  | 
CC(C)C[C@@H]1NC(=O)CNC(=O)[C@H](CCC(=O)O)NC(=O)CNC(=O)[C@H](CCC(N)=O)NC1=O [GLQGE] (cyclo(EGLQG)) |  | did not affect | did not affect | suppressed | diminished | increase | increased | ≤ 5 | ≤ 120 | 15 | 15 | ≤ 5 | ≤ 120 | no significant abnormalities | no significant abnormalities | no significant abnormalities | no significant abnormalities |  | 
GLOGE (head to tail) |  |  |  |  |  |  |  |  |  |  |  |  |  | no significant abnormalities | no significant abnormalities | no significant abnormalities | no significant abnormalities |  | 
GLNGE (head to tail) |  |  |  |  |  |  |  |  |  |  |  |  |  | no significant abnormalities | no significant abnormalities | no significant abnormalities | no significant abnormalities | diminished | reduced
